Test results published in the Kinase Knowledgebase extract (Sharma et al. 2016).

Legend:
[1] = biological target: MAPK14 (UniProt Q16539)
[2] = test system: MAPK14 (dog); conditions: pbmc
[3] = biological target: MAPK14, Q16539 [p38 beta Inhibition]
[4] = biological target: MAPK14 (human) (UniProt Q16539); conditions: pbmc
[5] = biological target: MAPK14 (human) (UniProt Q16539); conditions: pbmc; remark: listed apart in the source
[6] = biological target: MAPK14 (human) (UniProt Q16539); conditions: pbmc; remark: listed apart in the source
[7] = test system: MAPK14 (rat); conditions: pbmc
[8] = biological target: MAPK14 (human) (UniProt Q16539); conditions: pbmc; remark: listed apart in the source

MAPK14 (human), sequence (Q16539 whole entry, looked up): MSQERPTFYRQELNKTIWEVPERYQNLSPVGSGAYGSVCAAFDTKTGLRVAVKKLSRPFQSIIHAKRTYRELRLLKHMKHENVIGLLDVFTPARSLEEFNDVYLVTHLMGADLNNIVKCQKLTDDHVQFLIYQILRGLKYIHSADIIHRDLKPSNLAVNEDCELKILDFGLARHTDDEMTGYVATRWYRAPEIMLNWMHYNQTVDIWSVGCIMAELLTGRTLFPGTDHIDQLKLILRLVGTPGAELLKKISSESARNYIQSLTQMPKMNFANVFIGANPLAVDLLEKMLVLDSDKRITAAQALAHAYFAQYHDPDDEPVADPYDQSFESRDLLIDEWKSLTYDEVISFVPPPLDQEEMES
MAPK14, sequence (Q16539 whole entry, looked up): as above
MAPK14, Q16539 [p38 beta Inhibition], sequence (Q16539 whole entry, looked up, change not shown): as the sequence (Q16539 whole entry, looked up) above

Question: For `OCCC#Cc1nc(-c2ccc(F)cc2)c(-c2ccncc2)n1CCCc1ccccc1`, which IC50 [1] is on record?
Answer: 1 µM

Question: What about the IC50 [2] of the same compound?
Answer: 0.015 µM

Question: And the IC50 [3]?
Answer: 11 µM

Question: And the IC50 [4]?
Answer: 0.011 µM

Question: And the IC50 [5]?
Answer: 0.013 µM

Question: And the IC50 [6]?
Answer: 0.006 µM

Question: And the IC50 [7]?
Answer: 0.58 µM

Question: And the IC50 [8]?
Answer: 0.003 µM
